Legend:
[1] = test system: LC319 cells; experiment: MTT assay of LC319 cells treated with cell-permeable 11R-EF-1delta peptides; type: cell-based, human; settings: peptide 2.5, 5.0 and 7.5 micro M for 5 days
Excerpt: 19-amino acid peptide sequence corresponding to a part of EF-1delta protein that contained possible binding sites of CDKN3 were covalently linked at its NH2-terminus to a membrane transducing 11 poly-arginine sequence (11R; refs. Futaki et al., Hayama et al., 2006, 2007). Five cell permeable peptides were synthesized: 11R-EF-1delta73-91, RRRRRRRRRRR-GGG-TSGDHGELVVRIASLEVEN; 11R-EF-1delta90-108, RRRRRRRRRRR-GGG-ENQSLRGVVQELQQAISKL; 11R-EF-1delta108-126, RRRRRRRRRRR-GGG-LEARLNVLEKSSPGHRATA; 11R-EF-1delta125-143, RRRRRRRRRRR-GGG-TAPQTQHVSPMRQVEPPAK; 11R-EF-1delta142-160, RRRRRRRRRRR-GGG-AKKPATPAEDDEDDDIDLF. Peptides were purified by preparative reverse-phase high-pressure liquid chromatography. LC319 cells were incubated with the 11R peptides at the concentration of 2.5, 5.0 and 7.5 micro M for 5 days. The medium was changed at every 48 hours at the appropriate concentrations of each peptide and the viability of cells was evaluated by MTT assay at 5 days after the treatment. 12. Immunoprecipitation and MALDI-TOF-MS mapping of CDKN3-Associated Proteins.

[2] = biological target: T1, CDKN3 and EF-1delta (Homo sapiens, UniProt Q16667); experiment: Immunoprecipitation of endogenous CDKN3 and EF-1delta complex in peptide-treated LC319 cells; type: cell-based; settings: peptide added to culture medium
T1 construct: between endogenous CDKN3 and EF-1delta proteins in LC319 cells; endogenous in cells; host or cells: LC319 (human lung adenocarcinoma cell line)
T1 sequence (Q16667 1-212): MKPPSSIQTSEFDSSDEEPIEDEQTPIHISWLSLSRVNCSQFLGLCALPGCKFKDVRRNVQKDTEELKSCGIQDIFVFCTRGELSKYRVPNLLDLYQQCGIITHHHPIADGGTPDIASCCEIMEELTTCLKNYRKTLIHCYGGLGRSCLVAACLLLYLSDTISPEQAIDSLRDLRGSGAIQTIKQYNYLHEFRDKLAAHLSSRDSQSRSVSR
Excerpt: FIG. 24: Identifies the CDKN3-binding region in EF-1delta. Part A presents a schematic drawing of five cell permeable peptides linked covalently at its NH2-terminus to a membrane transducing 11 poly-arginine sequence. The sequence of leucine zipper motif in EF-1delta and five cell permeable peptides derived from EF-1delta are shown. Part B presents the viability of LC319 cells evaluated by MTT assay in response to five cell permeable peptides (upper panel). Reduction of the complex formation detected by immunoprecipitation between endogenous CDKN3 and EF-1delta proteins in LC319 cells that were treated with the 11R-EF-1delta90-108 peptides (lower panel).
Then, to investigate the functional significance of interaction between CDKN3 and EF-1delta for growth or survival of lung-cancer cells, bioactive cell-permeable peptides expected to inhibit the binding of these two proteins were developed. Next 5 different peptides of 19 amino acid sequence that included in codons 73-160 of EF-1delta were synthesized (FIG. 24A). These peptides were covalently linked at NH2-terminalus to a membrane transducing 11 arginine-residues (11R).

Substance: RRRRRRRRRRR-GGG-ENQSLRGVVQELQQAISKL (RRRRRRRRRRRGGGENQSLRGVVQELQQAISKL) [11R-EF-1delta90-108]
- cell viability (MTT assay) [1]: significant decreases
- complex formation between endogenous CDKN3 and EF-1delta [2]: reduced complex formation
